Laboratory results as given in article PMC9780857 (International Journal of Molecular Sciences, 2022).
Converted amounts (≈) assume the structure as drawn. “Also recorded” adds a separate entry of the source. Where two headings read alike, the source gives them in different places.

What was measured:
MATEs = test system: MATEs; parameters: method as in ref 33 (Wittwer et al.); conditions: ref 33 (Wittwer et al.); read-out: IC50, MATEs-mediated ASP+ uptake; cited from earlier work
hOCT2 [1] = molecular target: T1, hOCT2 (Homo sapiens, UniProt O15244); experiment: Inhibition of hOCT2-mediated 14C-metformin uptake in transfected HEK293 cells; format: cell-based; parameters: expressed in transfected cells; host or cells: HEK293 (stably transfected)
T1 sequence (O15244 1-555): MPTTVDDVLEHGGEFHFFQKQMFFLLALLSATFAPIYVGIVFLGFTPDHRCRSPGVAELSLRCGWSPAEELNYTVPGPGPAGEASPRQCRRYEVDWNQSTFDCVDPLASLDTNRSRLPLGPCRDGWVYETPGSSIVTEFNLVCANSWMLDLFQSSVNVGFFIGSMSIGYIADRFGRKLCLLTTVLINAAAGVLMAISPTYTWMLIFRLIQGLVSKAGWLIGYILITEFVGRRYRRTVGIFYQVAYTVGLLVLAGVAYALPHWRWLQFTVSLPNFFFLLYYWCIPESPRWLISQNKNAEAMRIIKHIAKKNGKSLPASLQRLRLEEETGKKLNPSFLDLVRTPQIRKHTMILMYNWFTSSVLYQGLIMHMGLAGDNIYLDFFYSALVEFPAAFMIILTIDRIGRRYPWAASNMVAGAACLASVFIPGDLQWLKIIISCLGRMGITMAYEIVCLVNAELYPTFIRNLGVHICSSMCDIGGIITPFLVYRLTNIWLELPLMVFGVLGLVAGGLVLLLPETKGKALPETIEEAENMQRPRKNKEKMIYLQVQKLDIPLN
Protocol: (§1) The uptake assays were performed as previously described in 24-well plates. […] After incubation, the uptake was stopped by aspirating the reaction mixture and washing the cells three times with 0.4 mL ice-cold PBS buffer. Cells were then solubilized with 0.6 mL of 1 N NaOH, overnight. The whole content of each well (0.6 mL) was transferred to a scintillation vial (Perkin Elmer). The radio-labelled amount was determined by liquid scintillation counting.
(§2) All inhibition experiments were conducted on at least two separate days in triplicate.
(§3) For screening experiments, cis-inhibition was carried out in duplicate by measuring the uptake of the labeled probe substrate in the absence and presence of 10 µM or 100 µM of the respective pesticide or drug. […] Inhibitory effects in percent were calculated from net-uptake. […]

mOct2 [2] = molecular target: T2, mOct2 (Mus musculus, UniProt O70577); experiment: Inhibition of mOct2-mediated 14C-metformin uptake in transfected HEK293 cells; format: cell-based; parameters: expressed in transfected cells; host or cells: HEK293 (stably transfected)
T2 sequence (O70577 1-553): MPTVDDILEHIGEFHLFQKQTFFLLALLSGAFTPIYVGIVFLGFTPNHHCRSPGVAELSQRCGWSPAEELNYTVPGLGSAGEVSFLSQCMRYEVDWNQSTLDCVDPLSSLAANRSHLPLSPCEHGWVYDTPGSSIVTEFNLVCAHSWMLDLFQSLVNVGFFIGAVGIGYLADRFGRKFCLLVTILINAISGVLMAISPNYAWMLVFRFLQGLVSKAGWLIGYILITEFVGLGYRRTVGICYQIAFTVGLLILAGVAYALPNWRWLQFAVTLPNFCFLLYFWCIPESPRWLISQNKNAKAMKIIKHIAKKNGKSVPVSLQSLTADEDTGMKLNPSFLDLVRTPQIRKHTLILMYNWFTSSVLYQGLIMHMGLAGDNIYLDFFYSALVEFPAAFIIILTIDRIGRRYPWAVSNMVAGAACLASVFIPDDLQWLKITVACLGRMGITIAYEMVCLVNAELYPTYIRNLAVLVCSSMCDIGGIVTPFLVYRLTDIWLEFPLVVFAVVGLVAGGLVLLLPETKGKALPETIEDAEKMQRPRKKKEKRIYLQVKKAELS
Protocol: as §1, §2, §3

[3] = Highest soluble concentration in assay buffer (determined visually); format: physicochemical; conditions: assay buffer (HBSS/HEPES), aqueous buffer, HBSS/HEPES pH 7.4
hOCT2 [4] = molecular target: T1, hOCT2; experiment: Inhibition of hOCT2-mediated 3H-MPP uptake in transfected HEK293 cells; format: cell-based; parameters: expressed in transfected cells; host or cells: HEK293 (stably transfected)
Protocol: (§4) With cDNA of hOCT2 (GeneBank: accession number: NM_003058.3) or mOct2 (NM_013667.2), stably overexpressing HEK293 cells were used for the experiments and empty vector-transfected HEK cells were used as control-HEK cells.
(§5) The uptake assays were performed as previously described in 24-well plates. Therefore, culture medium was aspirated, and each well was rinsed three times with 0.5 mL incubation buffer (HBSS supplemented with 20 mM HEPES, pH 7.4) and then incubated in 200 µL dosing solution containing ^3H-MPP or ^14C-metformin and the test compound. After incubation, the uptake was stopped by aspirating the reaction mixture and washing the cells three times with 0.4 mL ice-cold PBS buffer. Cells were then solubilized with 0.6 mL of 1 N NaOH, overnight. The whole content of each well (0.6 mL) was transferred to a scintillation vial (Perkin Elmer). The radio-labelled amount was determined by liquid scintillation counting.
(§6) […]. All inhibition experiments were conducted on at least two separate days in triplicate.
(§7) The Km and Vmax values were obtained using SigmaPlot version 13 by fitting the Michaelis–Menten equation V = Vmax*[S]/(Km + [S]), where V refers to the rate of substrate transport, Vmax refers to the maximum rate of substrate transport, [S] refers to the concentration of substrate, and Km is defined as the concentration of substrate at the half-maximal transport rate.

mOct2 [5] = molecular target: T2, mOct2; experiment: Inhibition of mOct2-mediated 3H-MPP uptake in transfected HEK293 cells; format: cell-based; parameters: expressed in transfected cells; host or cells: HEK293 (stably transfected)
Protocol: as §4, §5, §6, §7

hOCT2 [6] = molecular target: T1, hOCT2; parameters: expressed in transfected cells; host or cells: HEK293 (stably transfected); conditions: read-out: Km, concentration dependent uptake by human OCT2; cited from earlier work
hOCT2 [7] = molecular target: T1, hOCT2; conditions: read-out: IC50, hOCT2-mediated metformin uptake; cited from earlier work
hOCT2 [8] = molecular target: T1, hOCT2; parameters: expressed in transfected cells; host or cells: HEK293 (stably transfected); conditions: read-out: IC50, hOCT2-mediated MPP uptake; cited from earlier work
hOCT2 [9] = molecular target: T1, hOCT2; conditions: MPP higher affinity than metformin
Protocol: as §1
(§8) All experiments were conducted on two separate days in triplicate.
(§9) The cellular protein amounts were analyzed in parallel to the transport experiments by the Bradford method as previously described.
as §7

mOct2 [10] = molecular target: T2, mOct2; conditions: MPP higher affinity than metformin
Protocol: as §1, §8, §9, §7

[11] = HEK293, 10 µM test compound; 1 µM [14C]metformin, 2 min, HEK293; negative = stimulation; read-out: Inhibitory Effects (%) hOCT2 10 µM Mean
[12] = HEK293, 100 µM test compound; 1 µM [14C]metformin, 2 min, HEK293; negative = stimulation; read-out: Inhibitory Effects (%) hOCT2 100 µM Mean
[13] = HEK293; read-out: Inhibitory Effects (%) mOct2 10 µM Mean
[14] = HEK293; read-out: Inhibitory Effects (%) mOct2 100 µM Mean
[15] = up to 100 µM (highest soluble concentration)
[16] = 10 µM test compound; 1 µM [14C]metformin, 2 min, HEK293; negative = stimulation

Compound: CC(C)c1nc(CN(C)C(=O)N[C@H](C(=O)N[C@@H](Cc2ccccc2)C[C@H](O)[C@H](Cc2ccccc2)NC(=O)OCc2cncs2)C(C)C)cs1 [Ritonavir]
- IC50 (MATEs): 4.4 µM
- inhibition at 10 µM (hOCT2 [1]; [11]): -10%
- inhibition at 100 µM (hOCT2 [1]; [12]): -38%
- inhibition at 10 µM (mOct2 [2]; [13]): 1%
- inhibition at 100 µM (mOct2 [2]; [14]): -8%

Compound: COc1cc2c(cc1OC)CN(CCc1ccc(NC(=O)c3cccc4c(=O)c5cccc(OC)c5[nH]c34)cc1)CC2 [Elacridar]
- solubility [3]: 100 µM (≈ 56.4 µg/mL)
- IC50 (hOCT2 [1]): 20 µM
- inhibition at 10 µM (hOCT2 [1]; HEK293; read-out: Inhibitory Effects (%) hOCT2 10 µM Mean): 25%
- inhibition at 100 µM (hOCT2 [1]; HEK293; read-out: Inhibitory Effects (%) hOCT2 100 µM Mean): 65%
- IC50 (mOct2 [2]): 1.9 µM
- inhibition at 10 µM (mOct2 [2]; [13]): 56%
- inhibition at 100 µM (mOct2 [2]; [14]): 81%
- Fold higher inhibitory potency to mouse than to human OCT2 (IC50 ratio) (mOct2 [2]; metformin as substrate): 10 fold
- IC50, hOCT2-mediated MPP uptake (hOCT2 [4]; 2 nM [3H]MPP): no IC50 value could be determined; also recorded: calculation of an IC50 value was not possible
- Maximum inhibition of hOCT2-mediated MPP uptake (hOCT2 [4]; [15]): ≤ 60%
- IC50, mOct2-mediated MPP uptake (mOct2 [5]; 2 nM [3H]MPP): no IC50 value could be determined; also recorded: calculation of an IC50 value was not possible
- Maximum inhibition of mOct2-mediated MPP uptake (mOct2 [5]; [15]): ≤ 60%

Compound: C[n+]1ccc(-c2cc[n+](C)cc2)cc1 [Paraquat]
- inhibition at 10 µM (hOCT2 [1]; HEK293, read-out: Inhibitory Effects (%) hOCT2 10 µM Mean): -15%
- inhibition at 100 µM (hOCT2 [1]; HEK293, read-out: Inhibitory Effects (%) hOCT2 100 µM Mean): -52%
- inhibition at 10 µM (mOct2 [2]; HEK293, read-out: Inhibitory Effects (%) mOct2 10 µM Mean): -9%
- inhibition at 100 µM (mOct2 [2]; HEK293, read-out: Inhibitory Effects (%) mOct2 100 µM Mean): -48%
- Km (hOCT2 [6]): 114 µM

Compound: Clc1cccc(Cl)c1N=C1NCCN1 [Clonidine]
- IC50 (hOCT2 [7]): 0.68 µM
- Inhibitory Effects (%) hOCT2 10 µM Mean (hOCT2 [1]; [16]): 40%
- inhibition at 10 µM (hOCT2 [1]; [11]): 60%
- inhibition at 100 µM (hOCT2 [1]; [12]): 76%
- Inhibitory Effects (%) mOct2 10 µM Mean (mOct2 [2]; [16]): 54%
- inhibition at 10 µM (mOct2 [2]; HEK293, 10 µM test compound; 1 µM [14C]metformin, 2 min, HEK293; negative = stimulation; read-out: Inhibitory Effects (%) mOct2 10 µM Mean): 46%
- inhibition at 100 µM (mOct2 [2]; HEK293, 100 µM test compound; 1 µM [14C]metformin, 2 min, HEK293; negative = stimulation; read-out: Inhibitory Effects (%) mOct2 100 µM Mean): 89%
- IC50 (hOCT2 [8]): 6 µM

Compound: C[n+]1ccc(-c2ccccc2)cc1.[I-] [MPP, 1-Methyl-4-phenylpyridinium iodide]
- Fold difference in affinity (Km) of hOCT2 between MPP and metformin (hOCT2 [9]): 64 fold
- Fold difference in affinity (Km) of mOct2 between MPP and metformin (mOct2 [10]): 89 fold
